What was measured:
fa/fa obese Zucker rats = experiment: Long-term (12 months) treatment of obese Zucker rats: protection of the pancreas; assay type: in vivo, rat
Source text: The effect of a long-term (12 months) treatment with rimonabant was studied in Zucker rats with established obesity.
The fa/fa strain of obese Zucker rats is characterized by hyperphagia, obesity, dyslipidaemia and type 2 diabetes.
After 12 months, the fa/fa obese Zucker rats treated with the vehicle show a marked hypertrophy of the pancreas (+38%, p<0.05).

[1] = system: obese subjects with type 2 diabetes; experiment: Rio-Diabetes clinical study, 12 months, rimonabant 20 mg versus placebo; assay type: in vivo, human
Method: The Rio-Diabetes clinical study, carried out over 12 months in 1045 obese subjects with type 2 diabetes treated by monotherapy (metformin or sulfonylureas) compares the effect of rimonabant at the dose of 20 mg versus a placebo product in weight reduction; the improvement of glycosylated haemoglobin (HbAlc), of glycemia, of insulinaemia and lipid parameters. A low-calorie diet (deficit of 600 Kcal/day) is prescribed for all the patients and is introduced 4 weeks before the start of the treatment period.
The insulin resistance is evaluated by the HOMA (Homeostasis Model Assessment) test described by Matthew D. R. et al. in Diabetologica, 1985, 28, 412-419.

[2] = logistic regression analysis with weight as co-variable
[3] = rimonabant 20 mg, 12 months, p<0.001

Cc1c(C(=O)NN2CCCCC2)nn(-c2ccc(Cl)cc2Cl)c1-c1ccc(Cl)cc1 [rimonabant, N-piperidino-5-(4-chlorophenyl)-1-(2,4-dichlorophenyl)-4-methylpyrazole-3-carboxamide]
hypertrophy of the pancreas (fa/fa obese Zucker rats; 3 mg/kg/day, vehicle +38%): +17%
hypertrophy of the pancreas (fa/fa obese Zucker rats; 10 mg/kg/day, p<0.05, vehicle +38%): +1%
effect independent of the weight loss for the improvement in HDL-c [1, 2]: about 55%
effect independent of the weight loss for the improvement in HbAlc [1, 2]: about 55%
effect independent of the weight loss for the triglycerides [1, 2]: about 35%
time after which the loss of weight appears stabilized ([1]; rimonabant 20 mg): 6 months
decrease in glycemia on an empty stomach ([1]; rimonabant 20 mg group, 12 months, p<0.001 vs placebo): 0.64 ± 1.96 mmol/L
improvement in insulin resistance evaluated by the HOMA test ([1]; rimonabant 20 mg, 12 months): −0.5±5.7%
decrease of triglycerides compared with the placebo group [1, 3]: more than 16.4±3.3%
difference in the reduction of the level of HbAlc compared with the placebo [1, 3]: 0.7±0.1%
greater weight loss than that observed in the placebo group [1, 3]: 4.2 ± 0.4 kg
increase in the HDL-c level compared with the placebo [1, 3]: greater than 8.4±1.2%
reduction of insulinaemia on an empty stomach ([1]; rimonabant 20 mg, 12 months, p=0.247 vs placebo): 0.7±9.9 μIU/mL
reduction in the systolic blood pressure ([1]; rimonabant 20 mg, p=0.020): 0.8±12.8 mmHg
reduction in the diastolic blood pressure ([1]; rimonabant 20 mg, p=0.060): 1.9±8.2 mmHg
time at which the reduction of HbAlc is maximum ([1]; rimonabant 20 mg, then maintained up to 12 months): 9 months
HbAlc difference compared with the placebo ([1]; rimonabant combined with a sulfonylurea, p<0.001): 0.7±0.1%
HbAlc difference compared with the placebo ([1]; rimonabant combined with metformin, p<0.001): 0.7±0.1%
difference in weight loss compared with the placebo group ([1]; rimonabant-metformin combination, p<0.001): 4.3 ± 0.4 kg
difference in weight loss compared with the placebo group ([1]; rimonabant-sulfonylurea combination, p<0.001): 3.1 ± 0.5 kg
